Test: xn = mol fraction of the nth substance listed
Conditions: Liquid; for viscosity: Capillary tube (Ostwald / Ubbelohde) method; for mass density: Vibrating tube method

CCCCCCCC(=O)OCC [ethyl octanoate] + CCCCCCCCCCCC(=O)OC
Conditions	mass density [kg/m3]	viscosity [mPa·s]
303.15 K, 100 kPa, x2 = 0.1	859	1.41
303.15 K, 100 kPa, x2 = 0.1999	859	1.52
303.15 K, 100 kPa, x2 = 0.3001	859	1.61
303.15 K, 100 kPa, x2 = 0.4	860	1.71
303.15 K, 100 kPa, x2 = 0.4999	860	1.82
303.15 K, 100 kPa, x2 = 0.6001	860	1.96
303.15 K, 100 kPa, x2 = 0.6999	861	2.08
303.15 K, 100 kPa, x2 = 0.8001	861	2.19
303.15 K, 100 kPa, x2 = 0.9	862	2.32
303.15 K, 2940 kPa, x2 = 0.4999	862	1.9
303.15 K, 2960 kPa, x2 = 0.1	860	1.46
303.15 K, 2960 kPa, x2 = 0.3001	861	1.66
303.15 K, 2980 kPa, x2 = 0.1999	860	1.56
303.15 K, 2980 kPa, x2 = 0.4	861	1.75
303.15 K, 2990 kPa, x2 = 0.6001	862	2.05
303.15 K, 2990 kPa, x2 = 0.9	863	2.4
303.15 K, 3000 kPa, x2 = 0.8001	863	2.28
303.15 K, 3080 kPa, x2 = 0.6999	862	2.15
303.15 K, 5980 kPa, x2 = 0.8001	865	2.37
303.15 K, 6000 kPa, x2 = 0.4999	863	1.96
303.15 K, 6010 kPa, x2 = 0.1	861	1.51
303.15 K, 6020 kPa, x2 = 0.6001	864	2.12
303.15 K, 6030 kPa, x2 = 0.1999	862	1.6
303.15 K, 6040 kPa, x2 = 0.6999	864	2.24
303.15 K, 6060 kPa, x2 = 0.9	865	2.48
303.15 K, 6080 kPa, x2 = 0.3001	863	1.71
303.15 K, 6100 kPa, x2 = 0.4	863	1.82
303.15 K, 8950 kPa, x2 = 0.8001	867	2.44
303.15 K, 8980 kPa, x2 = 0.1999	863	1.66
303.15 K, 8980 kPa, x2 = 0.3001	864	1.78
303.15 K, 8990 kPa, x2 = 0.4	865	1.88
303.15 K, 8990 kPa, x2 = 0.9	868	2.56
303.15 K, 9030 kPa, x2 = 0.1	863	1.55
303.15 K, 9040 kPa, x2 = 0.6999	866	2.31
303.15 K, 9050 kPa, x2 = 0.6001	866	2.19
303.15 K, 9090 kPa, x2 = 0.4999	865	2.02
303.15 K, 11960 kPa, x2 = 0.6999	868	2.38
303.15 K, 11960 kPa, x2 = 0.8001	869	2.5
303.15 K, 11980 kPa, x2 = 0.1	864	1.59
303.15 K, 12000 kPa, x2 = 0.3001	866	1.83
303.15 K, 12010 kPa, x2 = 0.6001	867	2.24
303.15 K, 12020 kPa, x2 = 0.1999	865	1.7
303.15 K, 12020 kPa, x2 = 0.4999	867	2.08
303.15 K, 12030 kPa, x2 = 0.9	869	2.64
303.15 K, 12040 kPa, x2 = 0.4	866	1.94
303.15 K, 14940 kPa, x2 = 0.6001	869	2.3
303.15 K, 14970 kPa, x2 = 0.6999	870	2.44
303.15 K, 14970 kPa, x2 = 0.8001	870	2.56
303.15 K, 14980 kPa, x2 = 0.9	871	2.7
303.15 K, 15020 kPa, x2 = 0.1	866	1.64
303.15 K, 15040 kPa, x2 = 0.4999	868	2.13
303.15 K, 15070 kPa, x2 = 0.1999	867	1.75
303.15 K, 15070 kPa, x2 = 0.3001	867	1.88
303.15 K, 15080 kPa, x2 = 0.4	868	2
313.15 K, 100 kPa, x2 = 0.1	850	1.22
313.15 K, 100 kPa, x2 = 0.1999	850	1.31
313.15 K, 100 kPa, x2 = 0.3001	851	1.39
313.15 K, 100 kPa, x2 = 0.4	851	1.46
313.15 K, 100 kPa, x2 = 0.4999	851	1.55
313.15 K, 100 kPa, x2 = 0.6001	852	1.65
313.15 K, 100 kPa, x2 = 0.6999	852	1.75
313.15 K, 100 kPa, x2 = 0.8001	852	1.85
313.15 K, 100 kPa, x2 = 0.9	853	1.95
313.15 K, 2950 kPa, x2 = 0.6001	853	1.71
313.15 K, 2960 kPa, x2 = 0.8001	854	1.93
313.15 K, 2970 kPa, x2 = 0.6999	854	1.82
313.15 K, 2980 kPa, x2 = 0.1	851	1.25
313.15 K, 2980 kPa, x2 = 0.1999	852	1.34
313.15 K, 2990 kPa, x2 = 0.3001	852	1.43
313.15 K, 3030 kPa, x2 = 0.4	853	1.52
313.15 K, 3040 kPa, x2 = 0.4999	853	1.59
313.15 K, 3070 kPa, x2 = 0.9	855	2.03
313.15 K, 5960 kPa, x2 = 0.3001	854	1.48
313.15 K, 5990 kPa, x2 = 0.6999	856	1.89
313.15 K, 5990 kPa, x2 = 0.8001	856	1.99
313.15 K, 6000 kPa, x2 = 0.1	853	1.29
313.15 K, 6000 kPa, x2 = 0.1999	854	1.38
313.15 K, 6000 kPa, x2 = 0.6001	855	1.76
313.15 K, 6050 kPa, x2 = 0.4	854	1.56
313.15 K, 6090 kPa, x2 = 0.9	857	2.09
313.15 K, 6100 kPa, x2 = 0.4999	855	1.65
313.15 K, 8900 kPa, x2 = 0.1	855	1.33
313.15 K, 8900 kPa, x2 = 0.1999	855	1.42
313.15 K, 8960 kPa, x2 = 0.6999	858	1.93
313.15 K, 9000 kPa, x2 = 0.6001	857	1.81
313.15 K, 9010 kPa, x2 = 0.4	856	1.59
313.15 K, 9010 kPa, x2 = 0.9	859	2.15
313.15 K, 9030 kPa, x2 = 0.3001	855	1.52
313.15 K, 9030 kPa, x2 = 0.8001	858	2.06
313.15 K, 9050 kPa, x2 = 0.4999	857	1.7
313.15 K, 11910 kPa, x2 = 0.6001	859	1.87
313.15 K, 11950 kPa, x2 = 0.4	858	1.63
313.15 K, 11980 kPa, x2 = 0.3001	857	1.57
313.15 K, 12010 kPa, x2 = 0.1	856	1.37
313.15 K, 12010 kPa, x2 = 0.1999	856	1.47
313.15 K, 12010 kPa, x2 = 0.8001	860	2.11
313.15 K, 12020 kPa, x2 = 0.4999	858	1.74
313.15 K, 12070 kPa, x2 = 0.9	860	2.22
313.15 K, 12090 kPa, x2 = 0.6999	860	1.99
313.15 K, 14970 kPa, x2 = 0.8001	862	2.16
313.15 K, 14980 kPa, x2 = 0.6999	861	2.03
313.15 K, 15010 kPa, x2 = 0.6001	861	1.92
313.15 K, 15020 kPa, x2 = 0.3001	859	1.62
313.15 K, 15040 kPa, x2 = 0.4999	860	1.79
313.15 K, 15050 kPa, x2 = 0.1	858	1.41
313.15 K, 15050 kPa, x2 = 0.1999	858	1.51
313.15 K, 15050 kPa, x2 = 0.9	862	2.28
313.15 K, 15090 kPa, x2 = 0.4	859	1.69
323.15 K, 100 kPa, x2 = 0.1	841	1.03
323.15 K, 100 kPa, x2 = 0.1999	842	1.09
323.15 K, 100 kPa, x2 = 0.3001	842	1.13
323.15 K, 100 kPa, x2 = 0.4	843	1.19
323.15 K, 100 kPa, x2 = 0.4999	843	1.26
323.15 K, 100 kPa, x2 = 0.6001	843	1.33
323.15 K, 100 kPa, x2 = 0.6999	844	1.42
323.15 K, 100 kPa, x2 = 0.8001	844	1.51
323.15 K, 100 kPa, x2 = 0.9	844	1.61
323.15 K, 2930 kPa, x2 = 0.1	843	1.04
323.15 K, 2930 kPa, x2 = 0.1999	843	1.11
323.15 K, 2940 kPa, x2 = 0.3001	844	1.18
323.15 K, 2960 kPa, x2 = 0.6999	845	1.45
323.15 K, 2980 kPa, x2 = 0.6001	845	1.38
323.15 K, 3010 kPa, x2 = 0.4999	844	1.31
323.15 K, 3020 kPa, x2 = 0.4	844	1.24
323.15 K, 3020 kPa, x2 = 0.9	846	1.65
323.15 K, 3040 kPa, x2 = 0.8001	846	1.57
323.15 K, 6010 kPa, x2 = 0.8001	848	1.61
323.15 K, 6020 kPa, x2 = 0.3001	845	1.22
323.15 K, 6030 kPa, x2 = 0.4999	846	1.35
323.15 K, 6030 kPa, x2 = 0.6999	847	1.5
323.15 K, 6040 kPa, x2 = 0.6001	847	1.42
323.15 K, 6060 kPa, x2 = 0.1	844	1.08
323.15 K, 6060 kPa, x2 = 0.1999	845	1.15
323.15 K, 6080 kPa, x2 = 0.4	846	1.29
323.15 K, 6080 kPa, x2 = 0.9	849	1.7
323.15 K, 8930 kPa, x2 = 0.6999	849	1.56
323.15 K, 8980 kPa, x2 = 0.8001	850	1.67
323.15 K, 8980 kPa, x2 = 0.9	850	1.75
323.15 K, 9030 kPa, x2 = 0.6001	849	1.46
323.15 K, 9040 kPa, x2 = 0.1	846	1.11
323.15 K, 9070 kPa, x2 = 0.3001	847	1.26
323.15 K, 9070 kPa, x2 = 0.4999	848	1.39
323.15 K, 9090 kPa, x2 = 0.4	847	1.32
323.15 K, 9140 kPa, x2 = 0.1999	847	1.19
323.15 K, 11900 kPa, x2 = 0.4	849	1.36
323.15 K, 11960 kPa, x2 = 0.6001	850	1.5
323.15 K, 11970 kPa, x2 = 0.4999	850	1.43
323.15 K, 11990 kPa, x2 = 0.3001	849	1.29
323.15 K, 11990 kPa, x2 = 0.8001	852	1.72
323.15 K, 12000 kPa, x2 = 0.9	852	1.79
323.15 K, 12020 kPa, x2 = 0.1	847	1.14
323.15 K, 12020 kPa, x2 = 0.1999	848	1.22
323.15 K, 12060 kPa, x2 = 0.6999	851	1.6
323.15 K, 14960 kPa, x2 = 0.6001	852	1.55
323.15 K, 14960 kPa, x2 = 0.9	854	1.85
323.15 K, 14970 kPa, x2 = 0.8001	853	1.76
323.15 K, 14980 kPa, x2 = 0.6999	853	1.65
323.15 K, 14990 kPa, x2 = 0.1	849	1.18
323.15 K, 14990 kPa, x2 = 0.1999	850	1.26
323.15 K, 15010 kPa, x2 = 0.4	851	1.4
323.15 K, 15020 kPa, x2 = 0.3001	850	1.33
323.15 K, 15040 kPa, x2 = 0.4999	851	1.48

From the NIST ThermoML archive (doi:10.1021/acs.jced.8b00521)
